Measured values reported in publication PMC10959927, “Platinum iodido drugs show potential anti-tumor activity, affecting cancer cell metabolism and inducing ROS and senescence in gastrointestinal cancer cells” (Communications Biology, 2024).

Assays:
Assay type in all cases: cell-based, human
MKN45 cells = assay: Immunofluorescence of γ-H2AX foci; conditions: Fig. 3B; for foci/cell, number of cells in class: cell count
Description: (§1) Cells (7 × 10^4) were seeded on 20 mm coverslips. […] Coverslips were incubated for 1 h with the primary antibody (Cell Signaling: H2AX Ser139 (#2595) and 53BP1 (#4937)) at room temperature, followed by a 1 h incubation with the appropriate secondary antibody. DNA was stained with DAPI. Fluorescence microscopy was performed using a NIKON Eclipse 90i. The image analysis was performed using the software program Nikon NIS-Elements and Image J.

AGS cells = assay: Immunofluorescence of γ-H2AX and 53BP1 foci; conditions: for foci/cell, share of cells in class (Suma 100) / foci/cell, number of cells in class: Fig. 3B; for foci/cell, number of cells in class: cell count
Description: as §1

PANC1 cells = assay: Immunofluorescence of γ-H2AX and 53BP1 foci
Description: as §1

CC(C)[NH][Pt@SP3]([I])([I])[NH]C(C)C [I5, trans-[PtI2(isopropylamine)2]]
foci/cell, share of cells in class (Suma 100) (MKN45 cells; class 16-30 foci/cell): 20
foci/cell, number of cells in class (MKN45 cells; class 16-30 foci/cell): 5
foci/cell, share of cells in class (Suma 100) (MKN45 cells; class 31-45 foci/cell): 24
foci/cell, number of cells in class (MKN45 cells; class 31-45 foci/cell): 6
foci/cell, share of cells in class (Suma 100) (MKN45 cells; class 46-60 foci/cell): 20
foci/cell, number of cells in class (MKN45 cells; class 46-60 foci/cell): 5
foci/cell, share of cells in class (Suma 100) (MKN45 cells; class <15 foci/cell): 16
foci/cell, number of cells in class (MKN45 cells; class <15 foci/cell): 4
foci/cell, share of cells in class (Suma 100) (MKN45 cells; class >61 foci/cell): 20
foci/cell, number of cells in class (MKN45 cells; class >61 foci/cell): 5
foci/cell, share of cells in class (Suma 100) (AGS cells; class 16-30 foci/cell): 32.2835
foci/cell, number of cells in class (AGS cells; class 16-30 foci/cell): 41
foci/cell, share of cells in class (Suma 100) (AGS cells; class 31-45 foci/cell): 14.1732
foci/cell, number of cells in class (AGS cells; class 31-45 foci/cell): 18
foci/cell, share of cells in class (Suma 100) (AGS cells; class 46-60 foci/cell): 7.874
foci/cell, number of cells in class (AGS cells; class 46-60 foci/cell): 10
foci/cell, share of cells in class (Suma 100) (AGS cells; class <15 foci/cell): 37.0079
foci/cell, number of cells in class (AGS cells; class <15 foci/cell): 47
foci/cell, share of cells in class (Suma 100) (AGS cells; class >61 foci/cell): 8.661
foci/cell, number of cells in class (AGS cells; class >61 foci/cell): 11
foci/cell: number of cells with 16-30 foci (AGS cells; Fig. S4B, cell counts): 24
foci/cell: number of cells with 31-45 foci (AGS cells; Fig. S4B, cell counts): 5
foci/cell: number of cells with 46-60 foci (AGS cells; Fig. S4B, cell counts): 2
foci/cell: number of cells with <15 foci (AGS cells; Fig. S4B, cell counts): 37
foci/cell: number of cells with >61 foci (AGS cells; Fig. S4B, cell counts): 0
foci/cell: share of cells with 16-30 foci (Suma 100) (AGS cells; Fig. S4B, share of N): 35.2941
foci/cell: share of cells with 31-45 foci (Suma 100) (AGS cells; Fig. S4B, share of N): 7.353
foci/cell: share of cells with 46-60 foci (Suma 100) (AGS cells; Fig. S4B, share of N): 2.941
foci/cell: share of cells with <15 foci (Suma 100) (AGS cells; Fig. S4B, share of N): 54.4118
foci/cell: share of cells with >61 foci (Suma 100) (AGS cells; Fig. S4B, share of N): 0
foci/cell: number of cells with 16-30 foci (PANC1 cells; PANC1, Fig. S4B, cell counts): 11
foci/cell: number of cells with 31-45 foci (PANC1 cells; PANC1, Fig. S4B, cell counts): 3
foci/cell: number of cells with 46-60 foci (PANC1 cells; PANC1, Fig. S4B, cell counts): 1
foci/cell: number of cells with <15 foci (PANC1 cells; PANC1, Fig. S4B, cell counts): 18
foci/cell: number of cells with >61 foci (PANC1 cells; PANC1, Fig. S4B, cell counts): 0
foci/cell: share of cells with 16-30 foci (Suma 100) (PANC1 cells; PANC1, Fig. S4B, share of N): 33.3333
foci/cell: share of cells with 31-45 foci (Suma 100) (PANC1 cells; PANC1, Fig. S4B, share of N): 9.091
foci/cell: share of cells with 46-60 foci (Suma 100) (PANC1 cells; PANC1, Fig. S4B, share of N): 3.0303
foci/cell: share of cells with <15 foci (Suma 100) (PANC1 cells; PANC1, Fig. S4B, share of N): 54.5455
foci/cell: share of cells with >61 foci (Suma 100) (PANC1 cells; PANC1, Fig. S4B, share of N): 0
foci/cell, share of cells in class (Suma 100) (PANC1 cells; PANC1, Fig. 3B, class 16-30 foci/cell): 26.9231
foci/cell, number of cells in class (PANC1 cells; PANC1, Fig. 3B, class 16-30 foci/cell, cell count): 7
foci/cell, share of cells in class (Suma 100) (PANC1 cells; PANC1, Fig. 3B, class 31-45 foci/cell): 26.9231
